Measured values taken from patent US20070128217A1 (priority 2003, published 2007).

Columns and labels:
[1] = tested on: antibodies in sera from SARS patients (sera 1a, 1b, 2, 6, 37, 62, London, SARS-yellow, SARS-green); format: binding, human; parameters: Binding of serum 6 to linear peptides of protein X1 of SARS-CoV Urbani / Binding of serum 37 to linear peptides of protein X1 of SARS-CoV Urbani / Binding of serum 6 to looped/cyclic peptide (PEPSCAN-ELISA) / Binding of serum 37 to looped/cyclic peptide (PEPSCAN-ELISA) / Binding of serum 37 to looped/cyclic peptides of protein X1 of SARS-CoV Urbani / Binding of serum 6 to linear peptides of protein X2 / Binding of serum 37 to linear peptides of protein X2 / Binding of serum 37 to looped/cyclic peptides of protein X2 of SARS-CoV Urbani / Binding of serum 6 to linear peptides of protein M of SARS-CoV Urbani / Binding of serum 37 to linear peptides of protein M of SARS-CoV Urbani / Binding of serum 6 to looped/cyclic peptides of protein M of SARS-CoV Urbani / Binding of serum 37 to looped/cyclic peptides of protein M of SARS-CoV Urbani / Binding of serum 6 to linear peptides of protein X3 of SARS-CoV Urbani / Binding of serum 37 to linear peptides of protein X3 of SARS-CoV Urbani / Binding of serum 37 to looped/cyclic peptides of protein X3 of SARS-CoV Urbani / Binding of serum 6 to linear peptides of protein X4 of SARS-CoV Urbani / Binding of serum 37 to linear peptides of protein X4 of SARS-CoV Urbani / Binding of serum 37 to looped/cyclic peptides of protein X4 of SARS-CoV Urbani / Binding of serum 6 to linear peptides of protein X5 of SARS-CoV Urbani / Binding of serum 37 to linear peptides of protein X5 of SARS-CoV Urbani / Binding of serum 37 to looped/cyclic peptides of protein X5 of SARS-CoV Urbani / Binding of serum 6 to linear peptides of protein N of SARS-CoV Urbani / Binding of serum 37 to linear peptides of protein N of SARS-CoV Urbani / Binding of serum 6 to linear peptide (PEPSCAN-ELISA) / Binding of serum 1a to looped/cyclic peptides of protein N of SARS-CoV Urbani / Binding of serum 1b to looped/cyclic peptides of protein N of SARS-CoV Urbani / Binding of serum 2 to looped/cyclic peptides of protein N of SARS-CoV Urbani / Binding of serum 6 to looped/cyclic peptides of protein N of SARS-CoV Urbani / Binding of serum 37 to looped/cyclic peptides of protein N of SARS-CoV Urbani / Binding of serum 62 to looped/cyclic peptides of protein N of SARS-CoV Urbani / Binding of serum London to looped/cyclic peptides of protein N of SARS-CoV Urbani / Binding of serum SARS-green to looped/cyclic peptides of protein N of SARS-CoV Urbani: unit not given here
[2] = tested on: control sera (pooled serum of ten healthy LUMC hospital workers; commercial negative donor pooled serum from the Dutch bloodbank); format: binding, human; parameters: Binding of Control serum LUMC to linear peptides / Binding of Control serum Blood-bank to linear peptides / Binding of Control serum LUMC to looped peptides / Binding of Control Serum Blood-Bank to Looped peptides / Binding of Control serum LUMC to linear peptides of the protein M of SARS-CoV Urbani / Binding of Control serum Blood-bank to linear peptides of the protein M of SARS-CoV Urbani / Binding of Control serum LUMC to looped peptides of the protein M of SARS-CoV Urbani / Binding of Control Serum Blood-Bank to Looped peptides of the protein M of SARS-CoV Urbani: unit not given here
[3] = tested on: rabbit serum obtained by immunizing a rabbit with the SARS-CoV strain Frankfurt 1; format: binding; parameters: Binding of a rabbit serum to linear peptides / Binding of a rabbit serum to looped peptides / Rabbit serum linear peptides / Rabbit serum looped peptides / Binding of a rabbit serum to linear peptides of protein N of SARS-CoV Urbani (Rabbit serum linear peptides) / Binding of a rabbit serum to looped/cyclic peptides of protein N of SARS-CoV Urbani (Rabbit serum looped peptides): unit not given here

Which “Binding of serum 1a to linear peptides of protein X1 of SARS-CoV Urbani” value [1] does the source give for LVAAGMEAQFLYLYA here?
Its value is 0.8.

And the “Binding of serum 1a to looped/cyclic peptide (PEPSCAN-ELISA)” value [1]?
The value was 0.5.

What about the “Binding of serum 1b to linear peptides of protein X1 of SARS-CoV Urbani” value [1] of the same sequence?
Its value is 0.7.

What about the “Binding of serum 1b to looped/cyclic peptide (PEPSCAN-ELISA)” value [1] of the same sequence?
Its value is 0.4.

What about the “Binding of serum 2 to linear peptides of protein X1 of SARS-CoV Urbani” value [1] of the same sequence?
The value was 0.6.

What about the “Binding of serum 2 to looped/cyclic peptide (PEPSCAN-ELISA)” value [1] of the same sequence?
The value was 0.5.

And the “Binding of serum 6 to linear peptides of protein X1 of SARS-CoV Urbani” value [1]?
Its value is 0.4.

What about the “Binding of serum 6 to looped/cyclic peptide (PEPSCAN-ELISA)” value [1] of the same sequence?
Its value is 0.3.

And the “Binding of serum 37 to linear peptides of protein X1 of SARS-CoV Urbani” value [1]?
The value was 0.6.

What about the “Binding of serum 37 to looped/cyclic peptide (PEPSCAN-ELISA)” value [1] of the same sequence?
Its value is 0.5.

And the “Binding of serum 62 to linear peptides of protein X1 of SARS-CoV Urbani” value [1]?
The value was 0.5.

And the “Binding of serum 62 to looped/cyclic peptide (PEPSCAN-ELISA)” value [1]?
Its value is 0.5.

And the “Binding of serum London to linear peptides of protein X1 of SARS-CoV Urbani” value [1]?
Its value is 0.2.

What about the “Binding of serum London to looped/cyclic peptide (PEPSCAN-ELISA)” value [1] of the same sequence?
The value was 0.2.

What about the “Binding of serum SARS-green to linear peptides of protein X1 of SARS-CoV Urbani” value [1] of the same sequence?
Its value is 0.2.

And the “Binding of serum SARS-green to looped/cyclic peptide (PEPSCAN-ELISA)” value [1]?
The value was 0.3.

And the “Binding of serum SARS-yellow to linear peptides of protein X1 of SARS-CoV Urbani” value [1]?
Its value is 0.3.

What about the “Binding of serum SARS-yellow to looped/cyclic peptide (PEPSCAN-ELISA)” value [1] of the same sequence?
The value was 0.6.

What about the “Binding of Control Serum Blood-Bank to Looped peptides” value [2] of the same sequence?
Its value is 0.5.

What about the “Binding of Control serum Blood-bank to linear peptides” value [2] of the same sequence?
The value was 0.4.

And the “Binding of Control serum LUMC to linear peptides” value [2]?
Its value is 1.1.

And the “Binding of Control serum LUMC to looped peptides” value [2]?
Its value is 0.6.

What about the “Binding of a rabbit serum to linear peptides” value [3] of the same sequence?
The value was 0.1.

And the “Binding of a rabbit serum to looped peptides” value [3]?
The value was 0.6.

LVDFQVTIAEILIII was tested. Which “Binding of serum 1a to linear peptides of protein X3 of SARS-CoV Urbani” value [1] did it give?
Its value is 0.8.

And the “Binding of serum 1a to looped/cyclic peptides of protein X3 of SARS-CoV Urbani” value [1]?
The value was 0.7.

What about the “Binding of serum 1b to linear peptides of protein X3 of SARS-CoV Urbani” value [1] of the same sequence?
Its value is 0.6.

And the “Binding of serum 1b to looped/cyclic peptides of protein X3 of SARS-CoV Urbani” value [1]?
Its value is 0.4.

What about the “Binding of serum 2 to linear peptides of protein X3 of SARS-CoV Urbani” value [1] of the same sequence?
The value was 0.7.

And the “Binding of serum 2 to looped/cyclic peptides of protein X3 of SARS-CoV Urbani” value [1]?
The value was 0.6.

What about the “Binding of serum 6 to linear peptides of protein X3 of SARS-CoV Urbani” value [1] of the same sequence?
The value was 0.5.

What about the “Binding of serum 6 to looped/cyclic peptides of protein X3 of SARS-CoV Urbani” value [1] of the same sequence?
Its value is 0.3.

And the “Binding of serum 37 to linear peptides of protein X3 of SARS-CoV Urbani” value [1]?
Its value is 0.6.

What about the “Binding of serum 37 to looped/cyclic peptides of protein X3 of SARS-CoV Urbani” value [1] of the same sequence?
Its value is 0.5.

What about the “Binding of serum 62 to linear peptides of protein X3 of SARS-CoV Urbani” value [1] of the same sequence?
The value was 0.6.

And the “Binding of serum 62 to looped/cyclic peptides of protein X3 of SARS-CoV Urbani” value [1]?
Its value is 0.6.

What about the “Binding of serum London to linear peptides of protein X3 of SARS-CoV Urbani” value [1] of the same sequence?
The value was 0.6.

And the “Binding of serum London to looped/cyclic peptides of protein X3 of SARS-CoV Urbani” value [1]?
Its value is 0.2.

What about the “Binding of serum SARS-green to linear peptides of protein X3 of SARS-CoV Urbani” value [1] of the same sequence?
The value was 0.4.

What about the “Binding of serum SARS-green to looped/cyclic peptides of protein X3 of SARS-CoV Urbani” value [1] of the same sequence?
The value was 0.2.

What about the “Binding of serum SARS-yellow to linear peptides of protein X3 of SARS-CoV Urbani” value [1] of the same sequence?
The value was 0.7.

And the “Binding of serum SARS-yellow to looped/cyclic peptides of protein X3 of SARS-CoV Urbani” value [1]?
The value was 0.6.

What about the “Binding of Control Serum Blood-Bank to Looped peptides of the protein X3 of SARS-CoV Urbani” value [2] of the same sequence?
Its value is 0.6.

What about the “Binding of Control serum Blood-bank to linear peptides of the protein X3 of SARS-CoV Urbani” value [2] of the same sequence?
Its value is 0.8.

What about the “Binding of Control serum LUMC to linear peptides of the protein X3 of SARS-CoV Urbani” value [2] of the same sequence?
The value was 0.9.

What about the “Binding of Control serum LUMC to looped peptides of the protein X3 of SARS-CoV Urbani” value [2] of the same sequence?
Its value is 0.7.

And the “Rabbit serum linear peptides” value [3]?
The value was 0.3.

What about the “Rabbit serum looped peptides” value [3] of the same sequence?
Its value is 0.3.
